Results published in US6440999B1, “Intimal thickening inhibitory agent” (Chugai Seiyaku Kabushiki Kaisha, priority 1995, dated 2002).
Marks after values point to notes of the source that are not given here.

Columns and labels:
[1] = tested on: A7r5 cells derived from the aorta of a rat; assay: Inhibition of serum-stimulated proliferation of vascular smooth muscle cells, BrdU uptake (EIA); assay type: cell-based; conditions: for Absorbance (difference between 405 nm and 492 nm), BrdU uptake: n = 3, mean ± SD
Experimental: In order to assess the inhibitory effect of a compound of the present invention on serum-stimulated pro-liferation of vascular smooth muscle cells in vitro, the compound obtained in Example 36 was tested using A7r5 cells derived from the aorta of a rat (ATCC-CRL-1444).
Using DMEM medium containing 10% FBS, the cells were placed on 96-well microtiter plates with 5×10^3 cells/0.2 ml/well and then incubated. The medium was exchanged for 2% FBS-containing DMEM medium on the third day and then for 0.2% FBS-containing DMEM medium on the fourth day from the start of the incubation. After 48-hour incubation in the 0.2% FBS-containing DMEM medium, the medium was removed, 0.1 ml of DMEM medium and the test compound were added, and the cells were stimulated with serum (2% FBS) to proliferate. The test compound was added to the wells in the form of a solution or suspension in ethanol in an amount of 0.5 μl/well to final compound concentrations indicated in Table 1 below and the resultant ethanol concentration of 0.5% in each well. BrdU was pulsed to the wells from the 16th to 38th hours or from the 38th to 64th hours after the stimulation to a final concentration of 10 μM, and the uptake of BrdU into DNA was evaluated as an indication of cell proliferation. The BrdU uptake was measured by means of an EIA kit containing an anti-BrdU antibody (5-Bromo-2′-deoxy-uridine Labeling and Detection Kit III, available from Bohringer Mannheim Biochemica).

[2] = tested on: A7r5 cells derived from the aorta of a rat; assay: Inhibition of serum- or PDGF-stimulated proliferation of vascular smooth muscle cells, [3H]-thymidine uptake; assay type: cell-based
Experimental: In order to assess the inhibitory effect of a compound of the present invention on serum- or PDGF-stimulated proliferation of vascular smooth muscle cells in vitro, the compound obtained in Example 36 was tested using A7r5 cells derived from the aorta of a rat (ATCC-CRL-1444). Further, the effect was compared with that of α-tocopherol which was reported to have an inhibitory effect on proliferation of vascular smooth muscle cells (see J. Biol. Chem., 266, pp. 6188-6194 (1991)).
Using DMEM medium containing 10% FBS, the cells were placed on 96-well microtiter plates with 5×10^3 cells/0.2 ml/well and then incubated. The medium was exchanged for 2% FBS-containing DMEM medium on the third day and then for 0.2% FBS-containing DMEM medium on the fourth day from the start of the incubation. After 48-hour incubation in the 0.2% FBS-containing DMEM medium, the medium was removed, 0.2 ml of DMEM medium and the test compound were added, and the cells were stimulated with serum (2% FBS) or PDGF (PDGF-BB: human origin, available from Becton Dickinson Labware) (4 ng/ml) to proliferate. The test compound was added to the wells in the form of a solution or suspension in ethanol in amount of 1 μl well to final compound concentrations indicated in Table 2 below and the resultant ethanol concentration of 0.5% in each well. Eight hours after the stimulation, hydroxyurea was added to a final concentration of 1.5 mM to synchronize the cell cycle strictly. After additional 14-hour incubation, the medium containing hydroxyurea was removed and the cells were washed, and DMEM medium, the test compound and the proliferation stimulator were added thereto again. Further, [^3H]-thymidine (1 μCi/well; […]; available from NEN Research) was added. The [^3H]-thymidine uptake in 5 hours was measured as an indication of cell proliferation.

[3] = tested on: rabbit balloon injury models; assay: In vivo effect in intimal thickening model (1), rabbit balloon injury
Experimental: In order to assess the inhibitory effect of the compound of the present invention on intimal thickening in vivo, the compound of Example 36 was tested using rabbit balloon injury models.
(§1) Cholesterol-fed rabbits in groups of eight (JW: CSK male, 11-week-old) were used to prepare rabbit balloon injury models. Briefly, rabbits were fed with a high cholesterol diet (cholesterol content: 1%) for 2 weeks before balloon treatment. The animals were balloon-treated with a balloon catheter (3 French, available from Baxter) under anesthesia to peel the aortic intima 5 times. The animals were orally administered with the compound which was suspended in a 1% carboxymethyl cellulose (CMC) solution (200 mg/kg). On the other hand, control animals were orally administered with a 1% CMC solution without the compound. The administrations were performed once a day from 1 week before the balloon treatment until the day before the dissection for evaluation.
After four weeks from the balloon treatment, specimens were taken from the aorta, stained with Elastica van Geison, and analyzed under an optical microscope. The image was processed to measure the thickness and area of the thickened intima. Averages of the thickness and area were obtained for each individual animal. The animals which died due to the operation and those having a serum cholesterol level of 3500 mg/dl or higher were excluded from the measurement. The number of animals used for the evaluation was 5 or 6 per group.

[4] = tested on: rabbit balloon injury models; assay: In vivo effect in intimal thickening model (2), rabbit balloon injury
Experimental: In order to assess the inhibitory effect of the compound of the present invention on intimal thickening in vivo, the compound of Example 36 was tested using rabbit balloon injury models that were different from those used in Test Example 4 in week-age. Further, the effect was compared with that of Probucol which was reported to have an inhibitory effect on intimal thickening in balloon injury models (see Proc. Natl. Acad. Sci., U.S.A., 89, pp 11312-11316 (1992)).
as §1, with “seven” for “eight”, “15-week-old)” for “11-week-old)”, “(4” for “(3”, “CMC” for “carboxymethyl cellulose (CMC)”, “evaluation. In order to evaluate the degree of balloon injury, a balloon-nontreated group (3 animals) was prepared.” for “evaluation.”
After four weeks from the balloon treatment, specimens were taken from the aorta, stained with Elastica van Geison, and analyzed under an optical microscope. The image was processed to measure the thickness and area of the thickened intima. Averages of the thickness and area were obtained for each individual animal. The animals which died after the operation and those having a serum cholesterol level of 3500 mg/dl or higher were excluded from the measurement. The number of animals used for the evaluation was 4 or 5 per group.

[5] = both intimal thickness and intimal area, 200 mg/kg oral

CCCCCC1(CCCCC)Cc2c(cc(C(C)(C)C)c(O)c2C(C)(C)C)O1 [Example 36, 4,6-Di-t-butyl-2,2-di-n-pentyl-5-hydroxy-2,3-dihydrobenzofuran]
Absorbance (difference between 405 nm and 492 nm), BrdU uptake ([1]; 10 μM, BrdU pulse 16-38 hrs. after 2% FBS stimulation, control 0.433 ± 0.008): 0.397 ± 0.054
Absorbance (difference between 405 nm and 492 nm), BrdU uptake ([1]; 10 μM, BrdU pulse 38-64 hrs. after 2% FBS stimulation, control 0.436 ± 0.060): 0.195 ± 0.017
Absorbance (difference between 405 nm and 492 nm), BrdU uptake ([1]; 30 μM, BrdU pulse 16-38 hrs. after 2% FBS stimulation, control 0.433 ± 0.008): 0.362 ± 0.026
Absorbance (difference between 405 nm and 492 nm), BrdU uptake ([1]; 30 μM, BrdU pulse 38-64 hrs. after 2% FBS stimulation, control 0.436 ± 0.060): 0.085 ± 0.006
Absorbance (difference between 405 nm and 492 nm), BrdU uptake ([1]; 100 μM, BrdU pulse 16-38 hrs. after 2% FBS stimulation, control 0.433 ± 0.008): 0.290 ± 0.031
Absorbance (difference between 405 nm and 492 nm), BrdU uptake ([1]; 100 μM, BrdU pulse 38-64 hrs. after 2% FBS stimulation, control 0.436 ± 0.060): 0.049 ± 0.006
Inhibition of serum-stimulated proliferation of vascular smooth muscle cells (in words) ([1]; BrdU uptake, 10-100 μM): inhibits the serum-stimulated proliferation of vascular smooth muscle cells dose-dependently
Count by Liquid Scintillation Counter, FBS Stimulation ([3H]-thymidine uptake) ([2]; 100 μM, 2% FBS, uptake in 5 hours, control 42789 ± 1063, n = 3, mean ± SD): 14147 ± 1372 CPM
Count by Liquid Scintillation Counter, PDGF Stimulation ([3H]-thymidine uptake) ([2]; 100 μM, PDGF-BB 4 ng/ml, uptake in 5 hours, control 24517 ± 2370, n = 3, mean ± SD): 7881 ± 356 CPM
Inhibitory effect compared with α-tocopherol (in words) ([2]; [3H]-thymidine uptake): higher than that of α-tocopherol
Inhibition of serum- or PDGF-stimulated proliferation of vascular smooth muscle cells (in words) ([2]; [3H]-thymidine uptake, 100 μM): inhibits serum- or PDGF-stimulated proliferation of vascular smooth muscle cells
Inhibitory effect on intimal thickening (in words) [3, 5]: significant inhibitory effect on intimal thickening
Area of Intima ([3]; cholesterol-fed rabbits, 11-week-old, 200 mg/kg oral once a day, four weeks after balloon treatment, control 0.26 ± 0.03, mean ± SD): 0.11 ± 0.08** mm^2
Thickness of Intima ([3]; cholesterol-fed rabbits, 11-week-old, 200 mg/kg oral once a day, four weeks after balloon treatment, control 103 ± 12, mean ± SD): 45 ± 31 μm
Inhibitory effect on intimal thickening compared with Probucol (in words) ([4]; 200 mg/kg oral): higher than that of Probucol
Inhibitory effect on intimal thickening (in words) [4, 5]: significant inhibitory effect on intimal thickening
Area of Intima ([4]; cholesterol-fed rabbits, 15-week-old, 200 mg/kg oral once a day, four weeks after balloon treatment, control 1.32 ± 0.22, mean ± SD): 0.81 ± 0.22 mm²
Thickness of Intima ([4]; cholesterol-fed rabbits, 15-week-old, 200 mg/kg oral once a day, four weeks after balloon treatment, control 119 ± 19, mean ± SD): 76 ± 16 μm
